Measured values published in EP4178959B1, “NITROGEN HETEROCYCLIC CYTOKININ DERIVATIVES, COMPOSITIONS CONTAINING THESE DERIVATIVES AND USE THEREOF” (Univerzita Palackého v Olomouci, priority 2020, dated 2022).

Assays:
[1] = Calcein AM cytotoxicity assay, BJ cells; settings: human; for CC50 at 72 h: bj fibroblasts
Procedure: (§1) All compound concentrations were examined in duplicates. […] Zero cytotoxicity is a basic prerequisite for the use of these substances in cosmetical applications. To assess the antitumor activity, the toxicity of new derivatives on panels containing cell lines of different histogenic and species origin was tested (Table 5). […] The compounds listed in Table 5 can be divided into 2 groups.
(§2) The first group contains "classical cytokinins" represented by 6-substituted purines (their effects are already known). The second group includes novel 2-fluoro-N6-substituted-9-(2-oxacycloalkyl)-9H-purine-6-amine derivatives. […] Low cytotoxicity (high IC50 value) of the compounds is the basic prerequisite for cosmetic and medical applications. […] Table 5: Cytotoxicity of novel compounds for different normal cell lines tested / IC50 (µmol/L)

[2] = Calcein AM cytotoxicity assay, B10A.4 cells; settings: mouse; for CC50 at 72 h: b10a.4 macrophages
Procedure: as §1, §2

[3] = Calcein AM cytotoxicity assay, NIH3T3 cells; settings: mouse; for CC50 at 72 h: nih3t3 cells
Procedure: as §1, §2

excised wheat leaf tips = assay: Senescence inhibition on winter wheat leaf segments (chlorophyll retention); set-up: species or system Triticum aestivum cv. Hereward; settings: for Concentration with highest activity: retention of chlorophyll; for Activity (%) [10^-4mol.l^-1 KTHP = 100%] / Emax: retention of chlorophyll in excised wheat leaf tips, 96 h in the dark, at concentration with highest activity; for Emax: Triticum aestivum, foliar, read-out: Activity (%) [10^-4mol.l^-1 KTHP = 100%]
Procedure: Seeds of winter wheat, Triticum aestivum cv. Hereward, were washed under running water for 24 hours and then sown on vermiculite soaked with the Knop's solution. They were placed in the grow chamber at 25 °C with a 16/8 h light period at 50 μmol.m^-2.s^-1. After 7 days, the first leaf was fully developed and the second leaf had started to grow. A tip section of the first leaf, approximately 35 mm long, was removed from 5 seedlings and trimmed slightly to a combined weight of 100 mg. The basal ends of the five leaf tips were placed in the wells of a microtiter polystyrene plate containing 150 μl of the solution of the tested compound each. The entire plate was inserted into a plastic box lined with paper tissues soaked with distilled water to prevent leaf sections from drying out. […] The absorbance of the extract was recorded at 665 nm. In addition, chlorophyll extracts from fresh leaves and leaf tips incubated in deionised water were measured. From the obtained data, the concetration with the highest activity was selected for each compound tested. Relative activity of the compound at this concentration was calculated (Table 7). […] The values shown are means of five replicates and the whole experiment was repeated twice. The compounds to be tested were dissolved in dimethylsulfoxide (DMSO) and the solution brought up to 10^-3 M with distilled water. […] The compounds listed in Table 7 can be divided into 2 groups. The first group contains "classical 6,9-disubstituted purines (KTHP as a control)" known in prior art. […] Table 9: […]

[4] = Cytotoxicity IC50, B10A.4, first column headed B10A.4
[5] = Cytotoxicity IC50, B10A.4, second column headed B10A.4

Row | Compound | IC50 at 72 h [1] | IC50 at 72 h [2, 4] | IC50 at 72 h [2, 5] | IC50 at 72 h [3] | CC50 at 72 h [1] | CC50 at 72 h [2, 4] | Concentration with highest activity (excised wheat leaf tips) | Activity (%) [10^-4mol.l^-1 KTHP = 100%] (excised wheat leaf tips) | CC50 at 72 h [3] | CC50 at 72 h [2, 5] | Emax (excised wheat leaf tips)
1 | Nc1ncnc2nc[nH]c12 [Adenine, reference compound] | > 167 µM | > 167 µM | > 167 µM | > 167 µM | – | – | – | – | – | – | –
2 | CC(CO)CCNc1nc(F)nc2c1ncn2C1CCCO1 (stereo not drawn) [Compound 11] | – | – | – | – | > 167 µM | 146 µM | 10^-4 mol.l^-1 | 125 (± 12) % | 139 µM | – | –
3 | Oc1ccccc1CNc1nc(F)nc2c1ncn2C1CCCO1 (stereo not drawn) [Compound 14] | – | – | – | – | > 167 µM | > 167 µM | 10^-4 mol.l^-1 | 53.6 (± 7) % | > 167 µM | > 167 µM | –
4 | Oc1ccc(CNc2nc(F)nc3c2ncn3C2CCCO2)cc1 (stereo not drawn) [Compound 16, 2-Fluoro-6-[(4-hydroxybenzyl)amino]-9-(tetrahydrofuran-2-yl)-9H-purine] | > 167 µM | > 167 µM | – | > 167 µM | – | – | – | – | – | – | 110%
5 | COc1cccc(CNc2nc(F)nc3c2ncn3C2CCCO2)c1O (stereo not drawn) [Compound 20] | – | – | – | – | 137 µM | 124 µM | 10^-4 mol.l^-1 | 50 (± 5) % | > 141 µM | 126 µM | –
6 | COc1ccc(CNc2nc(F)nc3c2ncn3C2CCCO2)c(O)c1 (stereo not drawn) [Compound 21] | – | – | – | – | 132 µM | 147 µM | 10^-4 mol.l^-1 | 35 (± 9.5) % | 158 µM | – | –
7 | Oc1ccc(CNc2nc(F)nc3c2ncn3C2CCCO2)cc1O (stereo not drawn) [Compound 33] | – | – | – | – | > 167 µM | > 167 µM | 10^-4 mol.l^-1 | 71.3 (± 17) % | > 167 µM | – | –
8 | Oc1cc(O)cc(CNc2nc(F)nc3c2ncn3C2CCCO2)c1 (stereo not drawn) [Compound 34] | – | – | – | – | > 167 µM | > 167 µM | 10^-4 mol.l^-1 | 145 (± 12) % | > 167 µM | – | –
9 | COc1ccc(CNc2nc(F)nc3c2ncn3C2CCCO2)c(OC)c1 (stereo not drawn) [Compound 36] | – | – | – | – | > 167 µM | > 167 µM | 10^-4 mol.l^-1 | 125.6 (± 15) % | > 167 µM | – | –
10 | COc1ccc(OC)c(CNc2nc(F)nc3c2ncn3C2CCCO2)c1 (stereo not drawn) [Compound 37] | – | – | – | – | > 167 µM | > 167 µM | 10^-4 mol.l^-1 | 121.8 (± 17) % | > 167 µM | – | –
11 | COc1cccc(OC)c1CNc1nc(F)nc2c1ncn2C1CCCO1 (stereo not drawn) [Compound 38] | – | – | – | – | > 167 µM | > 167 µM | 10^-4 mol.l^-1 | 128 (± 16) % | > 167 µM | – | –
12 | COc1ccc(CNc2nc(F)nc3c2ncn3C2CCCO2)cc1OC (stereo not drawn) [Compound 39] | – | – | – | – | > 167 µM | > 167 µM | 10^-4 mol.l^-1 | 126 (± 21) % | > 167 µM | – | –
13 | COc1cc(CNc2nc(F)nc3c2ncn3C2CCCO2)cc(OC)c1 (stereo not drawn) [Compound 40] | – | – | – | – | > 167 µM | > 167 µM | 10^-4 mol.l^-1 | 163 (± 8) % | > 167 µM | – | –
14 | COc1cc(CNc2nc(F)nc3c2ncn3C2CCCO2)cc(OC)c1O (stereo not drawn) [Compound 41] | – | – | – | – | > 167 µM | > 167 µM | 10^-4 mol.l^-1 | 42 (± 13) % | > 167 µM | – | –
15 | COc1cc(O)cc(OC)c1CNc1nc(F)nc2c1ncn2C1CCCO1 (stereo not drawn) [Compound 42] | – | – | – | – | > 167 µM | > 167 µM | 10^-4 mol.l^-1 | 22 (± 4) % | > 167 µM | – | –
16 | COc1cc(CNc2nc(F)nc3c2ncn3C2CCCO2)ccc1O (stereo not drawn) [Compound 43, 2-Fluoro-6-[(4-hydroxy-3-methoxybenzyl)amino]-9-(tetrahydrofuran-2-yl)-9H-purine] | > 167 µM | > 167 µM | – | > 167 µM | – | – | – | – | – | – | 55%
17 | COc1cc(O)cc(CNc2nc(F)nc3c2ncn3C2CCCO2)c1 (stereo not drawn) [Compound 44] | – | – | – | – | > 167 µM | > 167 µM | 10^-4 mol.l^-1 | 47 (± 11) % | > 167 µM | – | –
18 | Cc1cccc(CNc2nc(F)nc3c2ncn3C2CCCO2)c1O (stereo not drawn) [Compound 49] | – | – | – | – | 161 µM | 156 µM | 10^-4 mol.l^-1 | 16.4 (± 3) % | > 167 µM | – | –
19 | Cc1ccc(O)c(CNc2nc(F)nc3c2ncn3C2CCCO2)c1 (stereo not drawn) [Compound 50] | – | – | – | – | > 167 µM | > 167 µM | 10^-4 mol.l^-1 | 82 (± 12) % | > 167 µM | – | –
20 | Cc1cc(CNc2nc(F)nc3c2ncn3C2CCCO2)ccc1O (stereo not drawn) [Compound 51] | – | – | – | – | > 167 µM | > 167 µM | 10^-4 mol.l^-1 | 19 (± 2) % | > 167 µM | – | –
21 | Cc1cc(O)cc(CNc2nc(F)nc3c2ncn3C2CCCO2)c1 (stereo not drawn) [Compound 52] | – | – | – | – | > 167 µM | > 167 µM | 10^-4 mol.l^-1 | 23 (± 1) % | > 167 µM | – | –
22 | Oc1ccoc1CNc1nc(F)nc2c1ncn2C1CCCO1 (stereo not drawn) [Compound 53] | – | – | – | – | > 167 µM | > 167 µM | 10^-4 mol.l^-1 | 45 (± 13) % | > 167 µM | – | –
23 | c1coc(CNc2ncnc3c2ncn3C2CCCCO2)c1 (stereo not drawn) [KTHP, 6-furfurylamino-9-tetrahydropyranylpurine, reference compound] | – | – | – | – | – | – | 10^-4 mol.l^-1 | 100 (± 8.6) % | – | – | –
24 | c1coc(CNc2ncnc3[nH]cnc23)c1 [Kinetin, reference compound] | 148 µM | > 167 µM | 164 µM | 133 µM | – | – | – | – | – | – | –
25 | CC(C)=CCNc1ncnc2nc[nH]c12 [isopentenyladenine, reference compound] | – | – | – | – | 134 µM | > 167 µM | – | – | 124 µM | 147 µM | –
26 | Oc1ccccc1CNc1ncnc2nc[nH]c12 [ortho-topolin, reference compound] | – | – | – | – | 108 µM | 87.5 µM | – | – | 94.1 µM | 94.3 µM | –
